According to patent US20230219961A1, “Pyridine acetamide derivative serving as CDK inhibitor, and preparation method therefor and use thereof” (Suzhou AlphaMa Biotechnology Co., Ltd., priority 2020, published 2023):

Experiments:
CDK7 = target: T1, CDK7 (Homo sapiens, UniProt P50613); assay: Inhibitory effect on the kinase activity of CDK7 in vitro (Caliper); type: biochemical; conditions: 77 uM ATP, 0.2 ug/uL CTD3 peptide; read-out: CDK 7 IC50
T1 construct: purchased Eurofilns (sic; Eurofins) 14-476 M
Procedure: (§1) The detection of the inhibitory effect of the compounds of the present disclosure on the kinase activity of CDK7/CDK9 in vitro was determined by the following method:
(§2) 1) The compound was accurately weighed and dissolved in DMSO (Sigma, D2650) to a concentration of 100 mM for later use. The compound was diluted to 5-fold of a desired highest concentration, and diluted 4-fold into 6 concentration gradients, allowing the final concentration of the compound in the reaction system to be CDK7: 3000, 750, 188, 47, 12, 3 nM; CDK9: 100, 25, 6.25, 1.56, 0.39, 0.098 nM. 5 ul was taken to a 384-well plate (Corning, 4512).
(§3) 2) Kinase reaction: 10uL protein kinase (CDK7: Eurofilns,14-476 M; CDK9: Millipore,14-685 M) solution was added to the 384-well plate (Corning, 4512) containing the compound, and allowed to stand at room temperature for 10 min; a mixed solution of ATP(Sigma, A7699) and substrate polypeptide (CDK7: 77 uM ATP&0.2ug/uL CTD3 peptide (GL Biochem,SY356885); CDK9: 10 uM ATP&0.2 ug/uL CTD3 peptide (GL Biochem,SY356885)) was added, and allowed to stand at 28° C. for a short time; and then a stop solution was added to terminate the reaction at 25 uL per well.
(§4) 3) Detection: Data was collected by Caliper.
(§5) 4) Calculation: The IC50 value was calculated by Graphpad prism 5.0 software according to the concentration of the compound and the corresponding signal value.

Mv4-11 cells = assay: Inhibition of the proliferation of Mv4-11 cells (CCK8); type: cell-based
Procedure: The inhibition effect of the compounds of the present disclosure on the proliferation of Mv4-11 cells (ATCC:CRL-9591™) in vitro was determined by the following method:
1) Cell inoculation: Mv4-11 cells with good growing state in logarithmic growth phase were inoculated into a 96-well plate at 20000 cells per well and 50 uL, and cultured at 37° C. and under 5% CO2 condition for 2-4 h.
2) Administration: The compound was diluted with 1640 medium containing 10% FBS and 1% PS: 0.4 uL of the compound with an initial concentration of 1 mM was placed in a dilution plate, each added with 199.6 uL of the above culture medium, and gradiently diluted 4-fold, so that the final concentration in the added cell was 1000, 250, 62.5, 15.625, 3.91, 0.98, 0.24, 0.06 nM. 50 µL of the medium containing the compound was sequentially added, and it was placed in a 37° C., 5% CO2 cell incubator for 48 hours.
3) Detection: 10uL CCK8 (Dojindo, CK 04) solution was added to each well, incubated in 37° C. 5% CO2 cell incubator for 2 hours, and then the OD450 value was read by Synegry H1(BioTek) multimode microplate reader.
4) Calculation: The IC50 value was calculated using Graphpad prism 5.0 software according to the concentration of the compound and the corresponding signal value.

CDK9 = target: T2, CDK9 (Homo sapiens, UniProt P50750); assay: Inhibitory effect on the kinase activity of CDK9 in vitro (Caliper); type: biochemical; conditions: 10 uM ATP, 0.2 ug/uL CTD3 peptide; read-out: CDK 9 IC50
T2 construct: purchased Millipore 14-685 M
Procedure: as §1, §2, §3, §4, §5

T1 sequence (P50613 whole entry): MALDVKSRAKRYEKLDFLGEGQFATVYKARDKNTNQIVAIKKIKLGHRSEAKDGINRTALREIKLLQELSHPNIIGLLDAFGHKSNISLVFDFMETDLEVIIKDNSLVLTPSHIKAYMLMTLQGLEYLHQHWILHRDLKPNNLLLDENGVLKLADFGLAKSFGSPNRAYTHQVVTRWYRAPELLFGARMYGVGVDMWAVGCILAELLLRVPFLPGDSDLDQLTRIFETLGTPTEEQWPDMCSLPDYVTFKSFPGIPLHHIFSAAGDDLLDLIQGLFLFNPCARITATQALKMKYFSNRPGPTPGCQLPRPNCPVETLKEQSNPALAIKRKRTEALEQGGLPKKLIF
T1 sequence (P51946 whole entry partner): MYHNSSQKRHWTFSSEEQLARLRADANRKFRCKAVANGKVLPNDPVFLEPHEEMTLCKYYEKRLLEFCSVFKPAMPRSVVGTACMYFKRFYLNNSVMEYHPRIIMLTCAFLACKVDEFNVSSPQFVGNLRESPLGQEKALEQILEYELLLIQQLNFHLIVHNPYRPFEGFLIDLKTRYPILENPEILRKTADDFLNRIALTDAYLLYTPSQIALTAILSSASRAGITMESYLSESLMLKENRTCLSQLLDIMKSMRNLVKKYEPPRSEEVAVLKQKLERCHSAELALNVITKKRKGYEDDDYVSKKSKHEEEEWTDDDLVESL
T1 sequence (P51948 whole entry partner): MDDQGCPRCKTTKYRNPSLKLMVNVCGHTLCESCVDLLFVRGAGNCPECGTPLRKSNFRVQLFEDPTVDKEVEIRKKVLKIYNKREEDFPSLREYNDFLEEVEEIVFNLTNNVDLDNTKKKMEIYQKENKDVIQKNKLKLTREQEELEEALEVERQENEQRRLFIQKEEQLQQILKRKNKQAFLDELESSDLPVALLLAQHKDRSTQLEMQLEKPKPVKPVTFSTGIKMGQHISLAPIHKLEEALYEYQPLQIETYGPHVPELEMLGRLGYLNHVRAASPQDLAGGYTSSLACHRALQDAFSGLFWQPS
T2 sequence (P50750 whole entry): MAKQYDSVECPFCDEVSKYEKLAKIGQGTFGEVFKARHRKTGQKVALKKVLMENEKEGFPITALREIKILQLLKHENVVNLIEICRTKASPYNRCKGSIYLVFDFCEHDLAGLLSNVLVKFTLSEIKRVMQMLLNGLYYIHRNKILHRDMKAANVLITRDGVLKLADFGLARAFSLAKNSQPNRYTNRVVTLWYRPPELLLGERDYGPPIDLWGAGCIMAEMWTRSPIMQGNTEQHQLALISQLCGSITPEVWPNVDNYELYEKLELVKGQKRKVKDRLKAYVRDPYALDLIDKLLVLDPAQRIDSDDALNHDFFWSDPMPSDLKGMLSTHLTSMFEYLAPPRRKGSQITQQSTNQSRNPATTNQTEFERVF
T2 sequence (O60563 whole entry partner): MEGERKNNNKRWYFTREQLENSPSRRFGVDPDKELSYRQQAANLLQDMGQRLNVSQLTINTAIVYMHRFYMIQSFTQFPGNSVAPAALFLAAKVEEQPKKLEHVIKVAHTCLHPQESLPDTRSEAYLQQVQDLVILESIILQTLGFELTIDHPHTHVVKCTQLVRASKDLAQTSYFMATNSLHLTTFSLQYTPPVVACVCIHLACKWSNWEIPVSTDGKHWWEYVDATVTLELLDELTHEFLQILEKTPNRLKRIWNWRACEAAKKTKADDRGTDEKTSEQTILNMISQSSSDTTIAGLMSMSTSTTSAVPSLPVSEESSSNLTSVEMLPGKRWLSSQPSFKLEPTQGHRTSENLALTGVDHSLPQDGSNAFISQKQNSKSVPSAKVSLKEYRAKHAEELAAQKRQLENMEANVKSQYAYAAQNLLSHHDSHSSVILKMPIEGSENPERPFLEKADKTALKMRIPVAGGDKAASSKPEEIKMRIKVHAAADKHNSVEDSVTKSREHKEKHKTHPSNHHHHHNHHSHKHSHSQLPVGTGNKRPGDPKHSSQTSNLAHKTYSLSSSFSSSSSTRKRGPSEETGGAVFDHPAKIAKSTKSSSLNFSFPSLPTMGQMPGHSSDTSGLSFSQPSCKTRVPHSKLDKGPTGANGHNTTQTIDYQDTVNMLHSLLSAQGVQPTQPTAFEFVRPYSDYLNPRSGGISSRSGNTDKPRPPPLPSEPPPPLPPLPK

Compound	IC50 (CDK7)	IC50 (Mv4-11 cells; Homo sapiens, MV4-11, 48 h)	IC50 (CDK9)	IC50 (Mv4-11 cells; 48 hours)
CC(=O)N[C@@H]1CCC[C@H](C(=O)Nc2cc(-c3cnn4c3CC(C)(C)C4)c(Cl)cn2)C1 [AZD4573, reference compound]	109 nM	4.2 nM	–	–
CC1(C)Cc2c(-c3cc(NC(=O)Cc4cccc(C(N)=O)c4)ncc3Cl)cnn2C1 [Compound 1, 3-(2-((5-chloro-4-(5,5-dimethyl-5,6-dihydro-4H-pyrrolo[1,2-b]pyrazol-3-yl)pyridin-2-yl)amino)-2-oxoethyl)benzamide]	96 nM	7.4 nM	3 nM	–
C[C@H](C(=O)Nc1cc(-c2cnn3c2CC(C)(C)C3)c(Cl)cn1)c1cccc(C(N)=O)c1 [Compound 2-1, (S)-3-(1-((5-chloro-4-(5,5-dimethyl-5,6-di hydro-4H-pyrrolo[1,2-b]pyrazol-3-yl)pyridin-2-yl)amino)-1-oxopropan-2-yl)benzamide (assumed)]	–	> 1000 nM	–	–
CC1(C)Cc2c(-c3cc(NC(=O)Cc4cccc(C#N)c4)ncc3Cl)cnn2C1 [Compound 4, N-(5-chloro-4-(5,5-dimethyl-5,6-dihydro-4 H-pyrrolo[1,2-b]pyrazol-3-yl)pyridin-2-yl) -2-(3-cyanophenyl)acetamide]	–	10.7 nM	–	–
CC1(C)Cc2c(-c3cc(NC(=O)Cc4ccncc4)ncc3Cl)cnn2C1 [Compound 5, N-(5-chloro-4-(5,5-dimethyl-5,6-dihydro-4 H-pyrrolo[1,2-b]pyrazol-3-yl)pyridin-2-yl) -2-(pyridin-4-yl)acetamide]	–	26 nM	–	–
CC1(C)Cc2c(-c3cc(NC(=O)Cc4cccnc4)ncc3Cl)cnn2C1 [Compound 6, N-(5-chloro-4-(5,5-dimethyl-5,6-dihydro-4 H-pyrrolo[1,2-b]pyrazol-3-yl)pyridin-2-yl) -2-(pyridin-3-yl)acetamide]	197 nM	9.9 nM	3.1 nM	–
CC1(C)Cc2c(-c3cc(NC(=O)Cc4cccc(C#N)n4)ncc3Cl)cnn2C1 [Compound 7, N-(5-chloro-4-(5,5-dimethyl-5,6-dihydro-4 H-pyrrolo[1,2-b]pyrazol-3-yl)pyridin-2-yl) -2-(6-cyanopyridin-2-yl)acetamide]	118 nM	8.2 nM	1.7 nM	–
CC(=O)Nc1cccc(CC(=O)Nc2cc(-c3cnn4c3CC(C)(C)C4)c(Cl)cn2)c1 [Compound 8, 2-(3-acetylaminophenyl)-N-(5-chloro-4-(5,5-dimethyl-5,6-dihydro-4H-pyrrolo[1,2-b]pyrazol-3-yl)pyridin-2-yl)acetamide]	116 nM	19.6 nM	3.4 nM	–
CC1(C)Cc2c(-c3cc(NC(=O)Cc4cccc(NC(=O)CC#N)c4)ncc3Cl)cnn2C1 [Compound 9, N-(5-chloro-4-(5,5-dimethyl-5,6-dihydro-4 H-pyrrolo[1,2-b]pyrazol-3-yl)pyridin-2-yl) -2-(3-(2-cyanoacetylamino)phenyl)acetamide]	–	13 nM	–	–
C[C@H](C(=O)Nc1cc(-c2cnn3c2CC(C)(C)C3)c(Cl)cn1)c1cccnc1 [Compound 11-1, (S)-N-(5-chloro-4-(5,5-dimethyl-5,6-dihydro-4H-pyrrolo[1,2-b]pyrazol-3-yl)pyridin-2-yl)-2-(pyridin-3-yl)propionamide (assumed)]	–	893 nM	–	–
COc1ccc(CC(=O)Nc2cc(-c3cnn4c3CC(C)(C)C4)c(Cl)cn2)cn1 [Compound 12, N-(5-chloro-4-(5,5-dimethyl-5,6-dihydro-4 H-pyrrolo[1,2-b]pyrazol-3-yl)pyridin-2-yl) -2-(6-methoxypyridin-3-yl)acetamide]	–	12.2 nM	5.2 nM	–
CC(=O)Nc1cccc([C@H](C)C(=O)Nc2cc(-c3cnn4c3CC(C)(C)C4)c(Cl)cn2)c1 [Compound 14-1, (S)-2-(3-acetylacetylaminophenyl)-N-(5-chloro-4-(5,5-dimethyl-5,6-dihydro-4H-pyrrolo [1,2-b]pyrazol-3-yl)pyridin-2-yl)propionamide (assumed)]	–	10.1 nM	2.3 nM	–
CC(=O)Nc1cccc([C@@H](C)C(=O)Nc2cc(-c3cnn4c3CC(C)(C)C4)c(Cl)cn2)c1 [Compound 14-2, (R)-2-(3-acetylaminophenyl)-N-(5-chloro-4-(5,5-dimethyl-5,6-dihydro-4H-pyrrolo[1,2-b]pyrazol-3-yl)pyridin-2-yl)propionamide (assumed)]	–	136 nM	–	–
C[C@H](C(=O)Nc1cc(-c2cnn3c2CC(C)(C)C3)c(Cl)cn1)c1ccnc(C#N)c1 [Compound 15-1, (S)-N-(5-chloro-4-(5,5-dimethyl-5,6-dihydro-4H-pyrrolo[1,2-b]pyrazol-3-yl)pyridin-2-yl)-2-(2-cyanopyridin-4-yl)propionamide (assumed)]	–	11.2 nM	5.9 nM	–
C[C@@H](C(=O)Nc1cc(-c2cnn3c2CC(C)(C)C3)c(Cl)cn1)c1ccnc(C#N)c1 [Compound 15-2, (R)-N-(5-chloro-4-(5,5-dimethyl-5,6-dihydro-4H-pyrrolo[1,2-b]pyrazol-3-yl)pyridin-2-yl)-2-(2-cyanopyridin-4-yl)propionamide (assumed)]	–	161 nM	–	–
COc1cc([C@H](C)C(=O)Nc2cc(-c3cnn4c3CC(C)(C)C4)c(Cl)cn2)ccn1 [Compound 16-1, (S)-N-(5-chloro-4-(5,5-dimethyl-5,6-dihydro-4H-pyrrolo[1,2-b]pyrazol-3-yl)pyridin-2-yl)-2-(2-methoxypyridin-4-yl)propionamide (assumed)]	–	6.4 nM	3.4 nM	–
COc1cc([C@@H](C)C(=O)Nc2cc(-c3cnn4c3CC(C)(C)C4)c(Cl)cn2)ccn1 [Compound 16-2, (R)-N-(5-chloro-4-(5,5-dimethyl-5,6-dihydro-4H-pyrrolo[1,2-b]pyrazol-3-yl)pyridin-2-yl)-2-(2-methoxypyridin-4-yl)propionamide (assumed)]	–	469 nM	–	–
C[C@@H](C(=O)Nc1cc(-c2cnn3c2CC(C)(C)C3)c(Cl)cn1)c1ccnc(C(C)(C)O)c1 [Compound 18-2, (R)-N-(5-chloro-4-(5,5-dimethyl-5,6-dihydro-4H-pyrrolo[1,2-b]pyrazol-3-yl)pyridin-2-yl)-2-(2-(2-hydroxypropan-2-yl)pyridin-4-yl)propionamide (assumed)]	74 nM	25 nM	3 nM	–
C[C@H](C(=O)Nc1cc(-c2cnn3c2CC(C)(C)C3)c(Cl)cn1)c1ccc(-c2cccnc2)nc1 [Compound 19-1, (S)-2-([2,3′-bipyridin]-5-yl)-N-(5-chloro-4-(5,5-dimethyl-5,6-dihydro-4H-pyrrolo[1,2-b]pyrazol-3-yl)pyridin-2-yl)propionamide (assumed)]	–	–	–	13.9 nM
C=CC(=O)NCc1ccc(-c2ccc([C@H](C)C(=O)Nc3cc(-c4cnn5c4CC(C)(C)C5)c(Cl)cn3)cn2)cn1 [Compound 20-1, (S)-N-((5-(1-((5-chloro-4-(5,5-dimethyl-5,6-dihydro-4H-pyrrolo[1,2-b]pyrazol-3-yl)pyridin-2-yl)amino)-1-oxopropan-2-yl)-[2,3′ -bipyridin]-6′-yl)methyl)acrylamide (assumed)]	25.1 nM	3.7 nM	8.4 nM	–
C=CC(=O)NCc1ccc(-c2ccc([C@@H](C)C(=O)Nc3cc(-c4cnn5c4CC(C)(C)C5)c(Cl)cn3)cn2)cn1 [Compound 20-2, (R)-N-((5-(1-((5-chloro-4-(5,5-dimethyl-5,6-dihydro-4H-pyrrolo[1,2-b]pyrazol-3-yl)pyridin-2-yl)amino)-1-oxopropan-2-yl)-[2,3′ -bipyridin]-6′-yl)methyl)acrylamide (assumed)]	–	850 nM	–	–
